One assay concerns the target T1, equine serum BChE (Equus caballus, UniProt P81908).
T1 construct: the equine serum BChE, and the porcine liver CES; purchased Sigma-Aldrich; host or cells: equine serum
The assay is described as follows: biochemical. Particulars: IC50 ± SEM, n = 3. How it is done:
(§1) The esterase profile was estimated using the human erythrocyteAChE, the equine serum BChE, and the porcine liver CES.
(§2) Human erythrocyte AChE, equine serum BChE, porcine liver CES, acetylthiocholine iodide (ATCh), butyrylthiocholine iodide (BTCh), 5,5′-dithio-bis-(2-nitrobenzoic acid) (DTNB), 4-nitrophenol acetate (4-NPA), and BNPP were purchased from Sigma-Aldrich (St. Louis, MO, USA).
(§3) AChE and BChE activities were measured via the Ellman method. The assay solution consisted of 0.1 M K/Na phosphate buffer pH 7.5, 25 °C with the addition of 0.33 mM DTNB, 0.02 unit/mL of AChE or BChE and 1 mM of substrate (ATCh or BTCh, respectively). The assays were carried out with a reagent blank containing all components (except AChE orBChE) in order to account for the non-enzymatic hydrolysis of the substrate. In addition, an enzyme blank was included that contained all components except substrate to account for non-substrate sulfhydryl groups.
(§4) The test compounds were dissolved in DMSO, and the incubation mixture contained 2% (v/v) of the solvent. Enzyme inhibition was first assessed at a single concentration of 20 µM for each compound after a 5 min incubation at 25 °C in three separate experiments. […] The test compounds were added to the assay solution and preincubated at 25 °C with the enzymes for 5 min, followed by the addition of substrate. A parallel control was made for the assay solution with no inhibitor. Measurements were performed with a FLUOStar Optima microplate reader (BMG Labtech, Ortenberg, Germany). Each experiment was performed in triplicate. The results were expressed as the mean ± SEM. The reaction rates in the presence and absence of the inhibitor were compared, and the percent of residual enzyme activity due to the presence of test compounds was calculated.

A further assay deals with T2, human erythrocyte AChE (Homo sapiens, UniProt P22303).
T2 construct: The esterase profile was estimated using the human erythrocyteAChE; purchased Sigma-Aldrich; host or cells: human erythrocytes
As to the kind of experiment: biochemical. Particulars: IC50 ± SEM, n = 3. The method, then:
as §1, §2, §3, §4

In a further assay the test system is porcine liver CES. The assay is described as follows: CES inhibition (4-nitrophenyl acetate hydrolysis).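 Note: values are percent inhibition of CES activity not residual activity.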 The class given is biochemical. Particulars: ± SEM, n = 3. How it is done: as §1, §2
The assay solution consisted of 0.1 M K/Na phosphate buffer pH 8.0, 25 °C, with the addition of 1 mM 4-nitrophenyl acetate and 0.02 unit/mL of CES. The assays were carried out with a blank containing all components, except CES.
as §4

A further assay deals with T3, EeAChE (Electrophorus electricus, UniProt O42275).
T3 construct: purchased Sigma-Aldrich type VI-S
The assay is described as follows: biochemical. Particulars: means ± SEM (n = 3); read-out: EeAChE Inhibition, IC50. The method, then: We selected AChE from electric eels (Electrophorus electricus) for consistency with our other reports and because of its purity, specific activity, and lower cost compared to human AChE [64].
as §3, §4
(§5) PIand donepezil were purchased from Sigma-Aldrich. […] As the source of the enzyme, electric eel (Elecrophorus electricus) AChE (EeAChE, type VI-S, lyophilized powder, Sigma-Aldrich, Saint Louis, MO, USA) was used. The applicability of this enzyme was shown earlier

The next assay has as its target T4, EeAChE PAS (Electrophorus electricus, UniProt O42275).
T4 construct: purchased Sigma-Aldrich type VI-S
The assay is described as follows: biochemical. It is filed as binding. Particulars: EeAChE 7 µM, PI 8 µM, means ± SEM (n = 3); for inhibition at 3 µM: read-out: PI Displacement, 3 µM; for inhibition at 20 µM: read-out: PI Displacement, 20 µM. The method, then:
as §5
To determine the percentage of displacement of PI from the EeAChE PAS, EeAChE (with a final concentration of 7 μM) was incubated with the test compound at a concentration of 3 and 20 μM in 1 mM Tris-HCl buffer pH 8.0, 25 °C for 15 min. Next, PIsolution (with a final concentration of 8 μM) was added, the samples were incubated for 15 min, and the fluorescence spectrum (530 nm (exc.) and 600 nm (emiss.)) was taken. Donepezil and decamethonium were used as reference compounds. The blank contained PI of the same concentration in 1 mM Tris-HCl buffer pH 8.0. The measurements were carried out in triplicate on a FLUOStar Optima microplate reader).
The percentage of displacement of PIfrom the peripheral anionic site of AChE was calculated using the following formula:% Displacement = 100 − (IFAChE+Propidium+inhibitor/IFAChE+Propidium) × 100,(1) where IFAChE+Propidium is the fluorescence intensity of the propidium associated with AChE in the absence of the test compound (taken as 100%) and IFAChE+Propidium+inhibitor is the fluorescence intensity of the propidium associated with AChE in the presence of the test compound.

Assay [1] deals with isolated rat liver mitochondria. The assay is described as follows: Mitochondrial membrane potential and calcium-induced depolarization (safranine O). Particulars: depolarization after 10-min incubation with 30 µM compound, mean ± SD; for ΔΨm, CI (g/m): complex I substrates (glutamate, malate); for ΔΨm, CII (s/r): complex II substrate (succinate) in the presence of rotenone. The class given is biochemical. The method, then: The primary screening of new compounds to determine their effect on the mitochondrial membrane potential formed due to respiratory chain (RC) activity after additions of RC substrates was performed on isolated rat liver mitochondria. It can be used to estimate the probability of the potential toxicity of these compounds. Furthermore, the influence of the compounds on the calcium-dependent depolarization of isolated rat liver mitochondria in this assay made it possible to evaluate the effect on the mitochondrial permeability transition.
Rat liver mitochondria were isolated by conventional differential centrifugation from the livers of adult Wistar strain rats that fasted overnight, pH 7.6 [83, 84]. The mitochondrial protein concentration was determined using a biuret procedure with bovine serum albumin as the standard.
Safranine O (10 µM) was used as a membrane potential probe. Fluorescence intensity at 580 nm (excitation at 520 nm) was measured with a Wallac Victor 3 1420 Multilabel Counter (Perkin Elmer, Turku, Finland). The mitochondrial protein concentration was 0.2 mg/mL. The medium for measurements contained 75 mM sucrose, 225 mM mannitol, 10 mM K-HEPES (pH 7.4), 0.02 mM EGTA, and 1 mM KH2PO4. After a 5-min incubation, 5 mM glutamate/malate or 5 mM succinate in the presence of 0.5 µM rotenone were added to produce the mitochondrial potential. Then, the compounds (30 µM) or the same volume of the vehicle (DMSO) were injected into the mitochondrial suspension. After 15–20 min, 12.5 µM CaCl2 was added to each sample to induce the depolarization of mitochondria, and after 5 min, 0.5 µM CCCP was added for maximum depolarization of the mitochondria. The level of depolarization (ΔΨm) was calculated using the fluorescence value after 10-min incubation with 30 µM of compounds (or vehicle) normalized between the fluorescence measurements after substrate and CCCP addition, where fluorescence intensity at 580 nm was 100% after substrate addition and was 0% after CCCP addition.

A short description of assay [2]: Oxygen radical absorbance capacity assay (ORAC-FL). Particulars: Trolox equivalent, Trolox = 1; means ± SEM (n = 3).
Text: The method is based on the measurement of the fluorescence intensity characterizing the degree of destruction of the fluorescence probe under the action of peroxyl radicals.
The peroxyl radical scavenging capacity of the test compounds was characterized in terms of the Trolox equivalent (TE), which is equal to the ratio of the Trolox concentration to the concentration of a test compound when they show equal fluorescence intensities in the assay. The peroxyl radical scavenging capacity of Trolox was set as 1 [67, 68].
2,2´-Azobis(amidinopropane) dihydrochloride (AAPH), (±)-6-hydroxy-2,5,7,8-tetramethylchroman-2-carboxylic acid (Trolox), and fluorescein (FL) were purchased from Sigma-Aldrich. The reaction was carried out at 37 °C in 75 mM K,Na phosphate buffer (pH 7.4), and the final reaction mixture was 200 µL. The test compounds and the Trolox standard were dissolved in DMSO to 10 mM and further diluted in a 75 mM K,Na phosphate buffer (pH 7.4). The final concentrations were 0.1–1 µM for the test compounds and 1–6 µM for the Trolox. The blank was composed of 20 µL of a 75 mM K,Na phosphate buffer (pH 7.4) containing 20% (v/v) DMSO, 120 µL of FL and 60 µL of AAPH, and it was added in each assay. The antioxidant (20 µL) and FL (120 µL, final concentration: 70 nM) solutions were placed in a black 96-well microplate and were preincubated for 15 min at 37 °C. A solution of AAPH (60 µL, final concentration: 12 mM) was then added rapidly using a multichannel pipette. The microplate was immediately placed in the reader, and the fluorescence was recorded every minute for 100 min. The microplate was automatically shaken prior to each reading. The Trolox standard curve was also obtained in each assay. All reactions were carried out in triplicate, and at least three different assays were performed for each sample.
The antioxidant curves (fluorescence vs. time) were first normalized to the curve of the blank (without the antioxidant) corresponding to the same assay, and the area under the fluorescence decay curve (AUC) was calculated. The net AUC corresponding to a sample was calculated by subtracting the AUC corresponding to the blank. Regression equations were calculated by plotting the net AUC against the antioxidant concentration. The ORAC Tolox equivalent value (TE) was obtained by dividing the slope of the latter curve by the slope of the Trolox curve obtained in the same assay. The ability of Trolox to scavenge the peroxyl radical was equal to 1 [64, 65]. […] The data are expressed as means ± SEM.

Molecules are shown by their SMILES.

T1 sequence (P81908 whole entry): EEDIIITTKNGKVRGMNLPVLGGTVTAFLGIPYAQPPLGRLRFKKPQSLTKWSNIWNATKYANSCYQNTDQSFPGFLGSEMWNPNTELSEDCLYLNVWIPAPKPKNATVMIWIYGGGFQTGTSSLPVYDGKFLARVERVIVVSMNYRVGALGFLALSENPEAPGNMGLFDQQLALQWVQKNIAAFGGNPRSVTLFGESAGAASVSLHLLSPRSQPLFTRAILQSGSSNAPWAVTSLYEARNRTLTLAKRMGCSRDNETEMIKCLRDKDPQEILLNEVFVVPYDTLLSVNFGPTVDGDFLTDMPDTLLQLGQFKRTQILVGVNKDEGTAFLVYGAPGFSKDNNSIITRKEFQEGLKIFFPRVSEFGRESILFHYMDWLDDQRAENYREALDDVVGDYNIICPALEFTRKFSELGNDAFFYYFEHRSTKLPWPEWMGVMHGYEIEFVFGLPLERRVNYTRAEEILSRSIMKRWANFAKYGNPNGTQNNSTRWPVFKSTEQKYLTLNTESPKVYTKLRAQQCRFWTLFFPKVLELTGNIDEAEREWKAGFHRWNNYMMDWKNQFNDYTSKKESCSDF
T2 sequence (P22303 32-617 isoform P22303-2 limits assumed): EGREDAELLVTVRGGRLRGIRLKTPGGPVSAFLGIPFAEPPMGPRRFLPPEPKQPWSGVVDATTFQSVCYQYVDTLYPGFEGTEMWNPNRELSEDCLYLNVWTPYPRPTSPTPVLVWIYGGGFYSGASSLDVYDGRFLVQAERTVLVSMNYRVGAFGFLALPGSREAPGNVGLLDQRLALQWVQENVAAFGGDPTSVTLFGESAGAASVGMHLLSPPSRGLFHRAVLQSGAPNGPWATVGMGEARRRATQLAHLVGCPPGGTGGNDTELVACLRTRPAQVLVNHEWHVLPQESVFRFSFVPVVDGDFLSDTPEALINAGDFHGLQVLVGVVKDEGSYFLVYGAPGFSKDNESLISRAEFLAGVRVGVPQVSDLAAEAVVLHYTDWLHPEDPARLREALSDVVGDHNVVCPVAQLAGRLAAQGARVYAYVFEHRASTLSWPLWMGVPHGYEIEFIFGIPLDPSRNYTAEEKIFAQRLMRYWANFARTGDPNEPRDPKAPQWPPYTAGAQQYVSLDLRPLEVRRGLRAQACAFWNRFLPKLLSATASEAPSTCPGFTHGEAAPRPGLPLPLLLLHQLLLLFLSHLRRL
T4 sequence (O42275 24-633): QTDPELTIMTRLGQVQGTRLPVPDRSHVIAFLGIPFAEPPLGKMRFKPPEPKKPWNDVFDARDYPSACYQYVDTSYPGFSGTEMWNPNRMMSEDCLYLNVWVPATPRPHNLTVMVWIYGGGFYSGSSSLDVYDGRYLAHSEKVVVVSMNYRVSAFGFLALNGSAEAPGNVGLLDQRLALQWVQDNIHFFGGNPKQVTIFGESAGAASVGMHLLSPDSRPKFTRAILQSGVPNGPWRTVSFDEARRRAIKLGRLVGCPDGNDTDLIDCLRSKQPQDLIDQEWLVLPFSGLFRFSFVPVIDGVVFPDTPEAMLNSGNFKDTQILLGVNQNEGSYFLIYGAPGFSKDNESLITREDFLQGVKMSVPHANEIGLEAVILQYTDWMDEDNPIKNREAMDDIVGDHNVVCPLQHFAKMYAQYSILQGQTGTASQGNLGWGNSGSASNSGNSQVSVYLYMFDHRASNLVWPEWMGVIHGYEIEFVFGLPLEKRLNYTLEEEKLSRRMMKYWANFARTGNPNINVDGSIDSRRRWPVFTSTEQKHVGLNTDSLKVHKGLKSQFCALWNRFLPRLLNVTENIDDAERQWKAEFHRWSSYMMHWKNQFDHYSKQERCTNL
T3 sequence (O42275 24-633): as above

With `Cc1ccc2c(c1)c1c(n2CCC(=O)N2c3ccc(N(C)C)cc3Sc3cc(N(C)C)ccc32)CCCC1` [Compound 4c], the IC50 against equine serum BChE was 41.4 ± 1.71 µM; at human erythrocyte AChE, 4.39 ± 0.26 µM; on EeAChE it was 1220 ± 10 nM. Also, the “CES inhibition at 20 µM” value with porcine liver CES is 14.9 ± 1.3%. On EeAChE PAS (compound 3 µM), the inhibition at 3 µM came out at 14.9 ± 1.1%. Further, at EeAChE PAS (compound 20 µM), the inhibition at 20 µM stood at 31.8 ± 0.9%. Moreover, the “ΔΨm, CI (g/m)” value in assay [1] came out at 29 ± 1%. Also, the “ΔΨm, CII (s/r)” value in assay [1] was 50 ± 3%. Besides, the “ORAC, TE Value” in assay [2] is listed as 5.5 ± 0.4.
Regarding `Cc1ccc2c(c1)c1c(n2CCC(=O)N2c3ccc(N(C)C)cc3Sc3cc(N(C)C)ccc32)CCCCCC1` [Compound 4n], the IC50 against equine serum BChE came to 15.6 ± 1.13 µM; against human erythrocyte AChE, 6.26 ± 0.01 µM; on EeAChE, 950 ± 70 nM. The “CES inhibition at 20 µM” value in the assay on porcine liver CES is on record as 33.1 ± 3.1%. Besides, on EeAChE PAS (compound 3 µM), the inhibition at 3 µM was found to be 16.7 ± 1.2%. Further, the inhibition at 20 µM on EeAChE PAS (compound 20 µM) amounted to 28.3 ± 1.2%. In addition, the “ΔΨm, CI (g/m)” value in assay [1] came to 23 ± 6%. In addition, in assay [1], the “ΔΨm, CII (s/r)” value turned out to be 65 ± 1%. Also, the “ORAC, TE Value” in assay [2] was determined as 10.9 ± 0.6.
With `COc1ccc2c(c1)c1c(n2CCC(=O)N2c3ccc(N(C)C)cc3Sc3cc(N(C)C)ccc32)CCCC1` [Compound 4d], the IC50 against equine serum BChE stood at 52.1 ± 2.7 µM; against human erythrocyte AChE, 10.5 ± 0.89 µM; at EeAChE, 2250 ± 70 nM. Moreover, in the assay on porcine liver CES, the “CES inhibition at 20 µM” value is 17.3 ± 1.5%. In addition, the inhibition at 3 µM at EeAChE PAS (compound 3 µM) turned out to be 13.4 ± 0.9%. For the same compound, the inhibition at 20 µM on EeAChE PAS (compound 20 µM) is 28 ± 1.5%. Further, in assay [1], the “ΔΨm, CI (g/m)” value was 30 ± 4%. In addition, in assay [1], the “ΔΨm, CII (s/r)” value worked out at 53 ± 1%. Besides, the “ORAC, TE Value” in assay [2] was found to be 4.8 ± 0.3.
`CN(C)c1ccc2c(c1)Sc1cc(N(C)C)ccc1N2` [MBH2, reference compound]: the results for the half-maximal inhibitory concentration (IC50) against equine serum BChE, against human erythrocyte AChE and at EeAChE were 10.1 ± 0.16 µM, 1.76 ± 0.09 µM and 280 ± 20 nM, respectively. In addition, in the assay with porcine liver CES, the “CES inhibition at 20 µM” value turned out to be 17.2 ± 1.8%. The “PI Displacement, 3 µM” value at EeAChE PAS (compound 3 µM) is 17.7 ± 1.8%. In addition, the “PI Displacement, 20 µM” value at EeAChE PAS (compound 20 µM) worked out at 36.9 ± 3.3%. For the same compound, the “ΔΨm, CI (g/m)” value in assay [1] is 0%. The “ΔΨm, CII (s/r)” value in assay [1] worked out at 18.2 ± 1.1%. Besides, the “ORAC, TE Value” in assay [2] was “not detectable”.

As a reminder, the IC50 is the midpoint of a concentration-inhibition curve.

These data come from publication PMC9697446 (International Journal of Molecular Sciences, 2022).
